# Activity calls are given as the source filed them. No cut-off for these calls is given here.
# Assays:
# [1] = molecular target: C-X-C chemokine receptor type 4 (Homo sapiens) (UniProt P61073); assay: Inhibition of human CXCR4-mediated chemotaxis expressed in mouse 300-19 Pre-B cells assessed as reduction in CXCL12/HMGB1-induced cell migration at 100 uM; format: functional, cell-based
# [2] = molecular target: C-X-C chemokine receptor type 4 (Homo sapiens) (UniProt P61073); assay: Inhibition of human CXCR4-mediated chemotaxis expressed in mouse 300-19 Pre-B cells assessed as reduction in CXCL12-induced cell migration at 100 uM; format: functional, cell-based
# [3] = molecular target: T1, High mobility group protein B1 (Homo sapiens, UniProt P09429); assay: Binding affinity to 6His-tagged HMGB1 (unknown origin) incubated for 15 mins by MST analysis
# T1 sequence (P09429 whole entry): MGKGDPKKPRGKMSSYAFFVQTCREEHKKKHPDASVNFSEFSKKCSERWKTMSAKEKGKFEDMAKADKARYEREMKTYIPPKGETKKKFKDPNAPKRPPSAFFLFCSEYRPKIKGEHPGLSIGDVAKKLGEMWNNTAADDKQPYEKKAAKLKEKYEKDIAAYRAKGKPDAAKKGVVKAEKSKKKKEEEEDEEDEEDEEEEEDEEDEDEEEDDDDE
# [4] = molecular target: T1, High mobility group protein B1; assay: Binding affinity to full-length N-terminal 6His-tagged HMGB1 (unknown origin) by NMR spectra
# [5] = molecular target: Toll-like receptor 4 (Homo sapiens) (UniProt O00206); assay: Inhibition of HMGB1 binding to TLR4 in human monocytes assessed as reduction in HMGB1-induced IL-6 production at 100 uM by cytometric bead array; format: cell-based; conditions: Monocyte
# Sequence of Toll-like receptor 4 (Homo sapiens) (O00206 whole entry): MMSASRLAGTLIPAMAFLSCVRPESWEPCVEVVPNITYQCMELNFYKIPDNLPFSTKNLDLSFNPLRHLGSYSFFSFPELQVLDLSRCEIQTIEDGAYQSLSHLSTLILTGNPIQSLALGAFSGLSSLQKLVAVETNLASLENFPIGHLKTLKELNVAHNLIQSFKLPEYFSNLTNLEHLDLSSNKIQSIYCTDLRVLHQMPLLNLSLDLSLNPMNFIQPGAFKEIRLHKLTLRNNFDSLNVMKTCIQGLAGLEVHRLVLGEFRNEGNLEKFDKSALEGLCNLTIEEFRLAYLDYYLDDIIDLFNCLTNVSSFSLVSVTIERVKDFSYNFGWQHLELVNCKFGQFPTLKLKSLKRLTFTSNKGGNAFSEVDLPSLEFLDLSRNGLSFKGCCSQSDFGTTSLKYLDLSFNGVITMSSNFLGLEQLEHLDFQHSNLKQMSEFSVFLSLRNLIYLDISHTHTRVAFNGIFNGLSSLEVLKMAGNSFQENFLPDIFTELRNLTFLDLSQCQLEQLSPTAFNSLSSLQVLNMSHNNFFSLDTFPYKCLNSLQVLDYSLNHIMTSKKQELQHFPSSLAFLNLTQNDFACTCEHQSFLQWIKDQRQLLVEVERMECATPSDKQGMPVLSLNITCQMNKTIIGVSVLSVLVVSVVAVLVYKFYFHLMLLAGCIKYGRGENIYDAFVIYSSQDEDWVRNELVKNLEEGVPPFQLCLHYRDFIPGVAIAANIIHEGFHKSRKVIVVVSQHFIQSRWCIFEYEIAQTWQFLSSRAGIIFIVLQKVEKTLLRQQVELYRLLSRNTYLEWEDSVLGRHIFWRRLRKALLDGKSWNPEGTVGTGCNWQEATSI
# [6] = molecular target: C-X-C chemokine receptor type 4 (Homo sapiens) (UniProt P61073); assay: Inhibition of human CXCR4-mediated chemotaxis expressed in human monocytes assessed as reduction in CXCL12/HMGB1-induced cell migration at 100 uM; format: functional, cell-based; conditions: Monocyte
# [7] = molecular target: C-X-C chemokine receptor type 4 (Homo sapiens) (UniProt P61073); assay: Inhibition of human CXCR4-mediated chemotaxis expressed in human monocytes assessed as reduction in CXCL12-induced cell migration at 100 uM; format: functional, cell-based; conditions: Monocyte
# [8] = molecular target: C-X-C chemokine receptor type 4 (Homo sapiens) (UniProt P61073); assay: Inhibition of human CXCR4-mediated chemotaxis expressed in mouse 300-19 Pre-B cells assessed as reduction in CXCL12/HMGB1-induced cell migration at 50 uM; format: functional, cell-based
# [9] = molecular target: Toll-like receptor 4 (Homo sapiens) (UniProt O00206); assay: Inhibition of HMGB1 binding to TLR4 in human monocytes assessed as reduction in HMGB1-induced TNF production at 100 uM by cytometric bead array; format: cell-based; conditions: Monocyte
# [10] = molecular target: C-X-C chemokine receptor type 4 (Homo sapiens) (UniProt P61073); assay: Inhibition of human CXCR4-mediated chemotaxis expressed in mouse 300-19 Pre-B cells assessed as reduction in CXCL12/HMGB1-induced cell migration at 200 uM; format: functional, cell-based
# Sequence of C-X-C chemokine receptor type 4 (Homo sapiens) (P61073 whole entry): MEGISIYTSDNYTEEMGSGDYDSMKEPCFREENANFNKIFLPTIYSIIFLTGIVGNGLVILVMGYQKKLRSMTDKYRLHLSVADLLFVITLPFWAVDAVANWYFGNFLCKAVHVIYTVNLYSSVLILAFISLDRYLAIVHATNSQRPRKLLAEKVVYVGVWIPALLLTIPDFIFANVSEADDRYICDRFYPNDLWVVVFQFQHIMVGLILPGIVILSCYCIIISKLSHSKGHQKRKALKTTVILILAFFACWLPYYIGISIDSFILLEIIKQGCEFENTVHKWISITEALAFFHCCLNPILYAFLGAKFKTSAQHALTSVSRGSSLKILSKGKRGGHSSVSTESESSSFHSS
compound,measurement,setting,value
H-YHICWYGDY-OH,inhibition,[1],Active
same,inhibition,[2],Active
H-ERWIH-OH,Kd,[3]; read-out: Kd,160 µM
H-HWTLANWCR-OH,inhibition,[1],Active
same,inhibition,[2],inactive
H-WISNWILMW-OH,inhibition,[1],Active
same,inhibition,[2],Active
O=C(O)c1cc(-c2ccc(F)cc2F)ccc1O [DIFLUNISAL],Kd,[4],1600 µM
H-GYHYE-OH,Kd,[3],Not Active
H-GYHYERWIH-OH,inhibition,[5],inactive
same,inhibition,[1],Active
same,inhibition,[6],Active
same,inhibition,[7],inactive
same,inhibition,[8],50%
same,inhibition,[9],inactive
same,inhibition,[2],inactive
CC1(C)[C@@H](O[C@H]2O[C@H](C(=O)O)[C@@H](O)[C@H](O)[C@H]2O[C@@H]2O[C@H](C(=O)O)[C@@H](O)[C@H](O)[C@H]2O)CC[C@]2(C)[C@H]3C(=O)C=C4[C@@H]5C[C@@](C)(C(=O)O)CC[C@]5(C)CC[C@@]4(C)[C@]3(C)CC[C@@H]12,inhibition,[10],Active
